US20120202690A1, “HERBICIDAL COMPOUNDS” (SYNGENTA LIMITED, priority 2009, published 2012)

Assays:
Format in all cases: in vivo
Setaria faberi (SETFA) [1] = assay: Post-emergence biological efficacy, glasshouse, 500 or 1000 g/ha, evaluated after 13 days (100=total damage to plant; 0=no damage to plant); conditions: Setaria faberi, 312 h, rate 1,000 g/ha, read-out: Percentage damage caused to weed species, post-emergence, SETFA
Outline: (§1)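 Standard soil, potted from seed; post-emergence treatment; glasshouse 24/16° C. (day/night), 14 h light, 65% humidity; watering twice daily.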

[2] = system: Echinochloa crusgaffi (ECHCG); assay: as above; conditions: Echinochloa, 312 h, rate 1,000 g/ha, read-out: Percentage damage caused to weed species, post-emergence, ECHCG
Outline: as §1

[3] = system: Alopecurus myosuroides (ALOMY); assay: as above; conditions: Alopecurus myosuroides, 312 h, rate 1,000 g/ha, read-out: Percentage damage caused to weed species, post-emergence, ALOMY
Outline: as §1

[4] = system: Ipomoea hederaceae (IPOHE); assay: as above; conditions: Ipomoea, 312 h, rate 1,000 g/ha, read-out: Percentage damage caused to weed species, post-emergence, IPOHE
Outline: as §1

Solanum nigrum (SOLNI) [5] = assay: as above; conditions: Solanum nigrum, 312 h, rate 1,000 g/ha, read-out: Percentage damage caused to weed species, post-emergence, SOLNI
Outline: as §1

[6] = system: Amaranthus retroflexus (AMARE); assay: as above; conditions: Amaranthus retroflexus, 312 h, rate 1,000 g/ha, read-out: Percentage damage caused to weed species, post-emergence, AMARE
Outline: as §1

[7] = system: Echinochloa crus-galli (ECHCG); assay: Pre-emergence biological efficacy, glasshouse, 1000 g/ha, evaluated after 13 days (100=total damage to plant; 0=no damage to plant); conditions: Echinochloa crus-galli, 312 h, rate 1,000 g/ha, read-out: Percentage damage caused to weed species, pre-emergence, ECHCG
Outline: (§2)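 Glasshouse conditions were controlled at 24/16° C. day/night with a 14-hour photoperiod and 65% humidity; pots contained standard soil into which seeds had been sown, and plants were watered twice daily.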

Setaria faberi (SETFA) [8] = assay: as above; conditions: Setaria faberi, 312 h, rate 1,000 g/ha, read-out: Percentage damage caused to weed species, pre-emergence, SETFA
Outline: as §2

[9] = system: Alopecurus myosuroides (ALOMY); assay: as above; conditions: Alopecurus myosuroides, 312 h, rate 1,000 g/ha, read-out: Percentage damage caused to weed species, pre-emergence, ALOMY
Outline: as §2

[10] = system: Ipomoea hederaceae (IPOHE); assay: as above; conditions: Ipomoea, 312 h, rate 1,000 g/ha, read-out: Percentage damage caused to weed species, pre-emergence, IPOHE
Outline: as §2

Solanum nigrum (SOLNI) [11] = assay: as above; conditions: Solanum nigrum, 312 h, rate 1,000 g/ha, read-out: Percentage damage caused to weed species, pre-emergence, SOLNI
Outline: as §2

[12] = system: Amaranthus retroflexus (AMARE); assay: as above; conditions: Amaranthus retroflexus, 312 h, rate 1,000 g/ha, read-out: Percentage damage caused to weed species, pre-emergence, AMARE
Outline: as §2

Row | Compound | pest or weed control at 1000 g/ha (Setaria faberi (SETFA) [1]) [%] | pest or weed control at 1000 g/ha [2] [%] | pest or weed control at 1000 g/ha [3] [%] | pest or weed control at 1000 g/ha [4] [%] | pest or weed control at 1000 g/ha (Solanum nigrum (SOLNI) [5]) [%] | pest or weed control at 1000 g/ha [6] [%] | pest or weed control at 1000 g/ha [7] [%] | pest or weed control at 1000 g/ha (Setaria faberi (SETFA) [8]) [%] | pest or weed control at 1000 g/ha [9] [%] | pest or weed control at 1000 g/ha [10] [%] | pest or weed control at 1000 g/ha (Solanum nigrum (SOLNI) [11]) [%] | pest or weed control at 1000 g/ha [12] [%]
1 | O=C(O)c1nc(C2CC2)nc2c1ccn2Cc1ccccc1[N+](=O)[O-] [Compound 8-1, 4-Carboxy-2-cyclopropyl-7-(2-nitrophenyl-methyl)-7H-pyrrolo[2,3-d]pyrimidine] | 0 | 10 | 0 | 40 | 30 | 0 | 0 | 0 | 0 | 0 | 0 | 0
2 | COC(=O)c1nc(C2CC2)nc2c1ccn2Cc1ccccc1[N+](=O)[O-] [Compound 8-2, 2-Cyclopropyl-4-methoxycarbonyl-7-(2-nitrophenyl-methyl)-7H-pyrrolo[2,3-d]pyrimidine] | 0 | 0 | 0 | 20 | 20 | 0 | 0 | 0 | 0 | 0 | 0 | 0
3 | Cc1cc2c(C(=O)O)nc(C3CC3)nc2n1Cc1ccccc1[N+](=O)[O-] [Compound 8-5, 4-Carboxy-2-cyclopropyl-6-methyl-7-(2-nitrophenyl-methyl)-7H-pyrrolo[2,3-d]pyrimidine] | 0 | 0 | 0 | 0 | 0 | 0 | 0 | 0 | 0 | 0 | 0 | 0
4 | COC(=O)c1nc(C2CC2)nc2c1cc(C)n2Cc1ccccc1[N+](=O)[O-] [Compound 8-6, 2-Cyclopropyl-4-methoxycarbonyl-6-methyl-7-(2-nitrophenyl-methyl)-7H-pyrrolo[2,3-d]pyrimidine] | 0 | 0 | 0 | 50 | 20 | 20 | 0 | 0 | 0 | 0 | 0 | 0
5 | O=C(O)c1nc(-c2ccc(Cl)c(F)c2)nc2c1ccn2Cc1ccccc1[N+](=O)[O-] [Compound 8-17, 4-Carboxy-2-(4-chloro-3-fluorophenyl)-7-(2-nitropheny-methyl)-7H-pyrrolo[2,3-d]pyrimidine] | 0 | 0 | 0 | 50 | 50 | 20 | 0 | 0 | 0 | 0 | 0 | 0
6 | COC(=O)c1nc(-c2ccc(Cl)c(F)c2)nc2c1ccn2Cc1ccccc1[N+](=O)[O-] [Compound 8-18, 2-(4-Chloro-3-fluorophenyl)-4-methoxycarbonyl-7-(2-nitrophenyl-methyl)-7H-pyrrolo[2,3-d]pyrimidine] | 0 | 0 | 0 | 20 | 30 | 0 | 0 | 0 | 0 | 0 | 0 | 0
7 | COc1c(Cl)ccc(-c2nc(C(=O)O)c3c(C)cn(Cc4ccccc4[N+](=O)[O-])c3n2)c1F [Compound 8-63, 4-Carboxy-2-(4-chloro-2-fluoro-3-methoxyphenyl)-5-methyl-7-(2-nitrophenyl-methyl)-7H-pyrrolo[2 ,3-d]pyrimidine] | 20 | 50 | 10 | 60 | 80 | 70 | 0 | 0 | 0 | 30 | 40 | 10
8 | COc1c(Cl)ccc(-c2nc(C(=O)O)c3cc(C)n(Cc4ccccc4[N+](=O)[O-])c3n2)c1F [Compound 8-65, 4-Carboxy-2-(4-chloro-2-fluoro-3-methoxyphenyl)-6-methyl-7-(2-nitrophenyl-methyl)-7H-pyrrolo[2,3-d]pyrimidine] | 20 | 0 | 0 | 10 | 10 | 0 | 0 | 0 | 0 | 0 | 0 | 0
9 | COC(=O)c1nc(-c2ccc(Cl)c(OC)c2F)nc2c1cc(C)n2Cc1ccccc1[N+](=O)[O-] [Compound 8-66, 2-(4-Chloro-2-fluoro-3-methoxyphenyl)-4-methoxycarbonyl-6-methyl-7-(2-nitrophenyl-methyl)-7H-pyrrolo[2,3-d]pyrimidine] | 0 | 0 | 0 | 10 | 30 | 0 | 0 | 0 | 0 | 0 | 10 | 10
10 | COc1c(Cl)ccc(-c2nc(C(=O)O)c3c(C)cn(Cc4ccc(F)cc4)c3n2)c1F [Compound 9-63] | 0 | 0 | 0 | 40 | 60 | 20 | 0 | 0 | 0 | 0 | 10 | 20
11 | COc1ccc(Cn2cc(C)c3c(C(=O)O)nc(-c4ccc(Cl)c(OC)c4F)nc32)cc1 [Compound 10-63, 4-Carboxy-2-(4-chloro-2-fluoro-3-methoxyphenyl)-7-(4-methoxyphenyl-methyl)-5-methyl-7H-pyrrolo[2,3-d]pyrimidine] | 0 | 0 | 0 | 20 | 20 | 10 | 0 | 0 | 0 | 0 | 0 | 0
